Legend:
[1] = Half-life after intravenous injection in male Wistar rats, concentration from plasma anti-factor Xa; format: in vivo; settings: 1 mg/Kg, T1/2 from concentration-time curve
Protocol: (§1) The pentose (API) in Example 10 is subjected to a biological test: anticoagulant factor Xa activity and half-life (Ti/2), as shown in Table 1. Determination of anticoagulant factor Xa activity: Refer to substrate developing method for determination of anticoagulant factor Xa of low molecular heparin. Measurement of half-life: inject this anticoagulant pentose (dosage 1 mg/Kg) in male Wistar rats intravenously for pharmacokinetic study, calculate the concentration of this compound in blood by measuring the anticoagulant factor Xa in plasma, and calculate the half-life (T1/2) by the concentration-time curve.

[2] = test system: factor Xa; assay: Determination of anticoagulant factor Xa activity (substrate developing method as for low molecular heparin); format: biochemical
Protocol: as §1

- Half-life [1]: 0.6 ± 0.1 H
SMILES: CO[C@H]1O[C@H](COS(=O)(=O)O)[C@@H](O[C@@H]2O[C@@H](C(=O)O)[C@@H](O[C@H]3O[C@H](COS(=O)(=O)O)[C@@H](O[C@@H]4O[C@H](C(=O)O)[C@@H](O[C@H]5O[C@H](COS(=O)(=O)O)[C@@H](O)[C@H](O)[C@H]5NS(=O)(=O)O)[C@H](O)[C@H]4O)[C@H](OS(=O)(=O)O)[C@H]3NS(=O)(=O)O)[C@H](O)[C@H]2OS(=O)(=O)O)[C@H](O)[C@H]1NS(=O)(=O)O [Fondaparinux sodium]
- Anticoagulant Factor Xa [2]: 750 + 30 IU/mg

Reference: patent US20220289782A1, “A Compound with High Anticoagulant Activity and Its Preparation Method and Application” (SUZHOU WISMED PHARMACEUTICALS CO LTD, priority 2019, published 2022)
